In patent US20220274967A1, “BCAT MODULATION” (Icagen, LLC, priority 2019, published 2022):
Like-named read-outs stand apart in the source and are kept apart here.

Experiments:
[1] = target: T1, BCAT2 (Homo sapiens, UniProt O15382); assay: BCAT2 enzyme inhibition (human); format: biochemical
T1 sequence (O15382 28-392): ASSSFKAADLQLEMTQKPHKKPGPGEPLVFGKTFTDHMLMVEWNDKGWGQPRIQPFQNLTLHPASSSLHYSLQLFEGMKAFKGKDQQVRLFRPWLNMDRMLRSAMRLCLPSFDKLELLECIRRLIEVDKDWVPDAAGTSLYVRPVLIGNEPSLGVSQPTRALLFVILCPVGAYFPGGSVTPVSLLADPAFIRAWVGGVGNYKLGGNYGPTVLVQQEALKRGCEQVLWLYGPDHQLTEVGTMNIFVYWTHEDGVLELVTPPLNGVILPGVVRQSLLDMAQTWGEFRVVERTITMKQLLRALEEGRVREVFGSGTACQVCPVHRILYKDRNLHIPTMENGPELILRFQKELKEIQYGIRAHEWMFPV
Procedure, shortened: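 Cell-free coupled fluorescent assay: human BCATm converts branched-chain amino acids and α-ketoglutarate to L-glutamate, which L-glutamate oxidase and HRP link to resorufin formation from Amplex Red; activity taken as reduced glutamate signal.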

[2] = 3-HIB assay in vitro, direct MS assay of conditioned media; format: cell-based, human; settings: GM00371 cells, read-out: 3HIB INHIBITION IC50 (μM) MEAN GM00371 cells Direct MS Assay
Protocol: (§1) Cell Plating: Cells (Coriell Institute GM00371 cells) were plated (96-well clear bottom sterile plate; Greiner 655098) at 10,000 cells/0.1 mL in Eagle's minimum essential medium (EMEM)/15% FBS (Gibco 16000-044) with a Combi dispenser in a cell culture hood and incubated at 37° C. and 5% CO2 overnight.
(§2) Compound Dilution: Compound were prepared as 33.3× intermediate dilution in DMSO in 96 well round polystyrene plates. For 30 μM final maximum start with 30 μL of 10 mM in DMSO. 10-12 1:3 serial dilutions were prepared from left to right (20 μL+40 μL DMSO). A 10× secondary dilution was prepare in EMEM by taking 7.5 μL 33.3× and transfer to replicate 96 well round polystyrene plates and then adding 242.5 μL EMEM A 1× final dilution in EMEM was prepared by taking 50 μL 10× dilution and transferring to replicate 96 well polypropylene assay block (Costar 3956) and adding 450 μL EMEM A control was prepared for maximal compound inhibition by taking 20 μL 10 mM Reference Compound A and adding 40 μL DMSO for a concentration of 3.3 mM To 7.5 μL of the 3.3 mM Reference Compound A solution and added 242.5 μL EMEM to make a 100 μM solution. The subsequent Reference Compound A solution was diluted with EMEM to achieve a final concentration of 10 μM. The structure of Reference Compound A is:
(§3) A control was prepared for maximal compound toxicity by taking 7.5 μL Reference Compound B and 242.5 μL EMEM to make […]. 50 μL of that 100 μM Reference Compound B solution was combined with 450 μL EMEM to achieve a concentration of 30 μM. The structure of Reference Compound B is
A DMSO Control was prepared by dilution 7.5 μL with 242.5 μL EMEM and taking 50 μL of the subsequent solution and diluting with 450 μL EMEM.
(§4) Compound Treatment: Media was aspirated from the cells and 100 μL of D-PBS (ThermoFisher 14190144) was added and then removed. 100 μL of diluted compound was added to the cells in the place and the cells were incubated at 37° C. and 5% CO2 for 24 hours.
Collection of Conditioned Media: For 3HIB MS detection: 20 μL conditioned media was removed from the cells and was transferred to a labeled replicate 96 well polypropylene assay plate (VWR 62408-946). And the plate was heat sealed and stored at −80° C.
3HIB Derivatization (Generalized SOP): The media collected for 3HIB MS detection was derivatized under the following conditions. Buffer: 0.1M 1-Ethyl-3-(3-dimethylaminopropyl)carbodiimide (EDC) dissolved in 0.1 M 2-(N-morpholino)ethanesulfonic acid ([…]) adjusted to pH 5.6. Buffer prep: weighed 10.6 g MES (Sigma #M-5287) per 500 mL HPLC grade H2O. Stored at 4° C.; 0.1M EDC: Weighed 1.971 g EDC (#E-1769) per 100 mL MES. Adjusted pH to 5.6 with ˜40 drops of 1N NaOH and stored at 4° C. Buffer has a short half-life should be used within two weeks.
Derivatization: To 20 μL sample was added 60 μL 5 uM 3HIB-4C13 internal standard followed by 20 μL EDC in MES and 100 μL MES. The plate was sealed and incubate at 50° C. for […] then centrifuged at 4000 rpm at 6° C. for 10 minutes. LC-MS analysis was then conducted and the data was processed using standard methods.

[3] = tested on: GM00371 cells; assay: Viability assay (Cell titer glo) in the 3-HIB assay; format: cell-based, human; settings: Homo sapiens, read-out: 3HIB INHIBITION IC50 (μM) MEAN GM00371 cells Viablility Assay
Protocol: as §1, §2, §3, §4
Viability Assay: To the cells remaining in the plate 25 μL D-PBS and 25 μL Cell titer glo reagent (Promega G7572). The plate was placed on a shaker for 2 minutes, incubated at room temperature in the dark and then read on a Clariostar microplate reader.

[4] = target: T2, BCAT1 (Homo sapiens, UniProt P54687); assay: BCAT1 enzyme inhibition (human), Glutamate Glo luminescence; format: biochemical
T2 sequence (P54687 1-386): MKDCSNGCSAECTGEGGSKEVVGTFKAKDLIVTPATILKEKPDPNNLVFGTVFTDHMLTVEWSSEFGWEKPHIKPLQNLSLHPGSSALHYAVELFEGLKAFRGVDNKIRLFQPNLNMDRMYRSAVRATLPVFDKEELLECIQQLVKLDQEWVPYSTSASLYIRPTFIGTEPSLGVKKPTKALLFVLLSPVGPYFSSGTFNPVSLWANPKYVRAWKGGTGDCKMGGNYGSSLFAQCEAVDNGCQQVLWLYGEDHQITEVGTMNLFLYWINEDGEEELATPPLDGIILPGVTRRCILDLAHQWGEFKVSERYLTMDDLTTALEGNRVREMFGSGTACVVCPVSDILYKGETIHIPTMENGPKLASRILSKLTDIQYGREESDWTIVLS
Procedure, shortened: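 BCAT1 enzyme (0.06 ug/ml final) was preincubated with compound (3-0.0001 μM, 0.3% DMSO) for 10 or 60 min at room temperature in 50 mM Tris/0.05% TWEEN-20. The reaction then ran 10 min with 300 μM L-leucine and 250 μM alpha-ketoglutaric acid, was acid-quenched, and glutamate was read by luminescence. IC50 came from a 4-parameter fit, normalized to 10 μM VS558CSA inhibition.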

SMILES | IC50 [1] [nM] | IC50 ([2]; Homo sapiens, 24 h) [µM] | IC50 ([3]; 24 h) [µM] | IC50 ([2]; 24 hours) [µM] | IC50 ([3]; 24 hours) [µM] | IC50 [4] [nM]
CNC(=O)c1ccc2c(c1)nc(-c1c(O)cccc1F)n2[C@H]1CCC[C@@H](NC(=O)c2ccc(Cl)s2)C1 [Compound 177] | < 100 | < 0.1 | 0.1 to 0.5 |  |  | 
CNC(=O)c1ccc2c(c1)nc(-c1ncccc1O)n2[C@H]1CCC[C@@H](NC(=O)c2ccc(Br)s2)C1 [Compound 152] | < 100 | 0.1 to 0.5 | 0.1 to 0.5 |  |  | 
CNC(=O)c1ccc2c(c1)nc(-c1ccccn1)n2[C@@H]1CCC[C@H](NC(=O)c2ccc(Br)s2)C1 [Compound 102] |  |  |  | 0.5 to 1 | 0.5 to 1 | ≥ 1000
CNC(=O)c1ccc2c(c1)nc(-c1ccccc1SC(F)(F)F)n2[C@H]1CCC[C@@H](NC(=O)c2ccc(C#N)s2)C1 [Compound 127] | 500 to 1000 | ≥ 1 | ≥ 1 |  |  | 
CNC(=O)c1ccc2c(c1)nc(-c1c(F)cccc1F)n2[C@H]1CCC[C@@H](NC(=O)c2ccc(C#N)s2)C1 [Compound 174] | < 100 | 0.1 to 0.5 | 0.5 to 1 |  |  | 
CNC(=O)c1ccc2c(c1)nc(-c1cccs1)n2[C@H]1CCC[C@@H](NC(=O)c2ccc(Br)s2)C1 [Compound 193] |  | 0.1 to 0.5 |  |  | 0.5 to 1 | 500 to 1000
CNC(=O)c1ccc2c(c1)nc(-c1ncccc1C#N)n2[C@H]1CCC[C@@H](NC(=O)c2ccc(C#N)s2)C1 [Compound 178] | < 100 | ≥ 1 | ≥ 1 |  |  | 
CNC(=O)c1ccc2c(c1)nc(-c1c(O)cccc1F)n2[C@H]1CCC[C@@H](NC(=O)c2ccc(C#N)s2)C1 [Compound 172] | < 100 | 0.1 to 0.5 | 0.1 to 0.5 |  |  | 
CNC(=O)c1ccc2c(c1)nc(-c1ccc(F)cc1F)n2[C@H]1CCC[C@@H](NC(=O)c2ccc(Br)s2)C1 [Compound 176] | < 100 | 0.1 to 0.5 | 0.1 to 0.5 |  |  | 
CNC(=O)c1ccc2c(c1)nc(-c1ccccc1OC)n2[C@H]1CCC[C@@H](NC(=O)c2ccc(C#N)s2)C1 [Compound 124] | < 100 | ≥ 1 | ≥ 1 |  |  | 
CNC(=O)c1ccc2c(c1)nc(-c1ncccc1C#N)n2[C@H]1CCC[C@@H](NC(=O)c2ccc(Cl)s2)C1 [Compound 192] | < 100 | 0.5 to 1 | 0.5 to 1 |  |  | 
CNC(=O)c1ccc2c(c1)nc(-c1ccccn1)n2[C@@H]1CCC[C@H](NC(=O)c2ccc([N+](=O)[O-])s2)C1 [Compound 107] | 500 to 1000 | ≥ 1 | ≥ 1 |  |  | 
CNC(=O)c1ccc2c(c1)nc(-c1cccs1)n2[C@H]1CCC[C@@H](NC(=O)c2ccc(C#N)s2)C1 [Compound 181] | < 100 | ≥ 1 | ≥ 1 |  |  | 
CNC(=O)c1ccc2c(c1)nc(-c1ccccn1)n2[C@H]1CCC[C@@H](NC(=O)c2ccc(Cl)s2)C1 [Compound 141] | < 100 | ≥ 1 | ≥ 1 |  |  | 
CNC(=O)c1ccc2c(c1)nc(-c1ccccc1NC(C)=O)n2[C@H]1CCC[C@@H](NC(=O)c2ccc(Br)s2)C1 [Compound 129] | 100 to 500 | ≥ 1 | ≥ 1 |  |  | 
CNC(=O)c1ccc2c(c1)nc(-c1ccccn1)n2[C@@H]1CCC[C@H](NC(=O)c2cccc(Br)c2)C1 [Compound 116] | > 1000 | ≥ 1 | ≥ 1 |  |  | 
CNC(=O)c1ccc2c(c1)nc(-c1cc(F)ccc1F)n2[C@H]1CCC[C@@H](NC(=O)c2ccc(Br)s2)C1 [Compound 175] | < 100 | < 0.1 | 0.1 to 0.5 |  |  | 
N#Cc1ccc(C(=O)N[C@@H]2CCC[C@H](n3c(-c4ccccn4)nc4cc(CO)ccc43)C2)s1 [Compound 133] | 100 to 500 | ≥ 1 | ≥ 1 |  |  | 
CNC(=O)c1ccc2c(c1)nc(-c1ncccc1C#N)n2[C@H]1CCC[C@@H](NC(=O)c2ccc(Br)s2)C1 [Compound 185] | < 100 | 0.5 to 1 | 0.5 to 1 |  |  | 
CNC(=O)c1ccc2c(c1)nc(-c1ncccc1F)n2[C@H]1CCC[C@@H](NC(=O)c2ccc(Cl)s2)C1 [Compound 197] | < 100 | < 0.1 |  |  |  | < 100
CNC(=O)c1ccc2c(c1)nc(-c1ccccn1)n2[C@@H]1CCC[C@H](NC(=O)c2ccc(C(F)(F)F)s2)C1 [Compound 113] | < 100 | ≥ 1 | 0.5 to 1 |  |  | 
CNC(=O)c1ccc2c(c1)nc(-c1ccccc1OC)n2[C@H]1CCC[C@@H](NC(=O)c2ccc(Br)s2)C1 [Compound 126] | < 100 | 0.1 to 0.5 | ≥ 1 |  |  | 
CNC(=O)c1ccc2c(c1)nc(-c1ncccc1F)n2[C@H]1CCC[C@@H](NC(=O)c2ccc(Br)s2)C1 [Compound 199] | < 100 | < 0.1 |  |  |  | < 100
CNC(=O)c1ccc2c(c1)nc(-c1ccccn1)n2[C@H]1CC[C@@H](NC(=O)c2ccc(C#N)s2)C1 [Compound 131] | 500 to 1000 | ≥ 1 | ≥ 1 |  |  | 
CNC(=O)c1ccc2c(c1)nc(-c1ccccc1SC(F)(F)F)n2[C@H]1CCC[C@@H](NC(=O)c2ccc(Br)s2)C1 [Compound 128] | 500 to 1000 | ≥ 1 | ≥ 1 |  |  | 
O=C(N[C@H]1CCC[C@@H](n2c(-c3ccccn3)nc3cc(C(F)(F)F)ccc32)C1)c1ccc(Br)s1 [Compound 140] | 100 to 500 | 0.5 to 1 | 0.5 to 1 |  |  | 
O=C(N[C@@H]1CCC[C@H](n2c(-c3ccccn3)nc3cc(Cl)ncc32)C1)c1ccc(Br)s1 [Compound 296] | < 100 | 0.1 to 0.5 | 0.5 to 1 |  |  | 
